{"source": "patent US12077503B2", "about": "“Substituted cyclic amides and their use as herbicides” (FMC CORPORATION, priority 2015, dated 2024)", "assay_type_in_all_cases": "in vivo", "key": {"[1]": {"test_system": "ryegrass, Italian (Italian ryegrass, Lolium multiflorum)", "test": "Test A postemergence", "conditions": "Lolium multiflorum, post-emergence, 240 h, 125 g ai/ha, postemergence; visual injury on 0 to 100 scale (0 no effect, 100 complete control), approx. 10 d; read-out: Ryegrass, Italian plant response rating", "how_it_was_run": "(§1)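 Preemergence directed soil spray on seeded pots, or postemergence application to plants 2–10 cm, one- to two-leaf. Solvent mixture non-phytotoxic, with surfactant. Scored ~10 d later, visually, 0–100 vs untreated.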"}, "[2]": {"test_system": "blackgrass (Alopecurus myosuroides)", "test": "Test A postemergence", "conditions": "Alopecurus myosuroides, post-emergence, 240 h, postemergence, approx. 10 d", "how_it_was_run": "as §1"}, "[3]": {"test_system": "ragweed (common ragweed, Ambrosia elatior)", "test": "Test A postemergence", "conditions": "Ambrosia artemisiifolia, post-emergence, 240 h, 125 g ai/ha, postemergence; visual injury on 0 to 100 scale (0 no effect, 100 complete control), approx. 10 d; read-out: Ragweed plant response rating", "how_it_was_run": "as §1"}, "[4]": {"test_system": "wheat (Triticum aestivum)", "test": "Test A postemergence", "conditions": "Triticum aestivum, post-emergence, 240 h, 125 g ai/ha, postemergence; visual injury on 0 to 100 scale (0 no effect, 100 complete control), approx. 10 d; read-out: Wheat plant response rating", "how_it_was_run": "as §1"}, "[5]": {"test_system": "barnyardgrass (Echinochloa crus-galli)", "test": "Test A postemergence", "conditions": "Echinochloa crus-galli, post-emergence, 240 h, postemergence, approx. 10 d", "how_it_was_run": "as §1"}, "[6]": {"test_system": "pigweed (Amaranthus retroflexus)", "test": "Test A postemergence", "conditions": "Amaranthus retroflexus, post-emergence, 240 h, 125 g ai/ha, postemergence; visual injury on 0 to 100 scale (0 no effect, 100 complete control), approx. 10 d; read-out: Pigweed plant response rating", "how_it_was_run": "as §1"}, "[7]": {"test_system": "Galium (catchweed bedstraw, Galium aparine)", "test": "Test A postemergence", "conditions": "Galium, post-emergence, 240 h, postemergence, approx. 10 d", "how_it_was_run": "as §1"}, "[8]": {"test_system": "giant foxtail (Setaria faberii)", "test": "Test A postemergence", "conditions": "Setaria faberi, post-emergence, 240 h, postemergence, approx. 10 d", "how_it_was_run": "as §1"}, "[9]": {"test_system": "corn (Zea mays)", "test": "Test A postemergence", "conditions": "Zea mays, post-emergence, 240 h, postemergence, approx. 10 d", "how_it_was_run": "as §1"}, "[10]": {"test_system": "Kochia (Kochia scoparia)", "test": "Test A postemergence", "conditions": "Bassia scoparia, post-emergence, 240 h, postemergence, approx. 10 d", "how_it_was_run": "as §1"}, "[11]": {"test_system": "ryegrass, Italian (Italian ryegrass, Lolium multiflorum)", "test": "Test A preemergence", "conditions": "Lolium multiflorum, pre-emergence, 240 h", "how_it_was_run": "as §1"}, "[12]": {"test_system": "ragweed (common ragweed, Ambrosia elatior)", "test": "Test A preemergence", "conditions": "Ambrosia artemisiifolia, pre-emergence, 240 h", "how_it_was_run": "as §1"}, "[13]": {"test_system": "barnyardgrass (Echinochloa crus-galli)", "test": "Test A preemergence", "conditions": "Echinochloa crus-galli, pre-emergence, 240 h", "how_it_was_run": "as §1"}, "[14]": {"test_system": "pigweed (Amaranthus retroflexus)", "test": "Test A preemergence", "conditions": "Amaranthus retroflexus, pre-emergence, 240 h"}, "[15]": {"test_system": "giant foxtail (Setaria faberii)", "test": "Test A preemergence", "conditions": "Setaria faberi, pre-emergence, 240 h", "how_it_was_run": "as §1"}, "[16]": {"test_system": "Kochia (Kochia scoparia)", "test": "Test A preemergence", "conditions": "Bassia scoparia, pre-emergence, 240 h", "how_it_was_run": "as §1"}}}
{"smiles": "CN1CC(c2ccccc2OC(F)(F)C(F)F)C(C(=O)Nc2ccccc2F)C1=O", "note": "(stereo not shown) [Compound 1053]", "values": [{"measurement": "pest or weed control at 125 g/ha", "setting": "[1]", "result": 0, "unit": "%"}, {"measurement": "pest or weed control at 125 g/ha", "setting": "[2]; 125 g ai/ha, visual injury on 0 to 100 scale (0 no effect, 100 complete control), read-out: Blackgrass plant response rating", "result": 0, "unit": "%"}, {"measurement": "pest or weed control at 500 g/ha", "setting": "[2]; 500 g ai/ha, visual injury, 0 to 100 scale (0 no effect, 100 complete control), read-out: Plant response rating, Blackgrass", "result": 0, "unit": "%"}, {"measurement": "pest or weed control at 125 g/ha", "setting": "[3]", "result": 0, "unit": "%"}, {"measurement": "plant injury at 125 g/ha", "setting": "[4]", "result": 0, "unit": "%"}, {"measurement": "pest or weed control at 125 g/ha", "setting": "[5]; 125 g ai/ha, visual injury on 0 to 100 scale (0 no effect, 100 complete control), read-out: Barnyardgrass plant response rating", "result": 0, "unit": "%"}, {"measurement": "pest or weed control at 500 g/ha", "setting": "[5]; 500 g ai/ha, visual injury, 0 to 100 scale (0 no effect, 100 complete control), read-out: Plant response rating, Barnyardgrass", "result": 0, "unit": "%"}, {"measurement": "pest or weed control at 125 g/ha", "setting": "[6]", "result": 0, "unit": "%"}, {"measurement": "pest or weed control at 125 g/ha", "setting": "[7]; 125 g ai/ha, visual injury on 0 to 100 scale (0 no effect, 100 complete control), read-out: Galium plant response rating", "result": 0, "unit": "%"}, {"measurement": "pest or weed control at 500 g/ha", "setting": "[7]; 500 g ai/ha, visual injury, 0 to 100 scale (0 no effect, 100 complete control), read-out: Plant response rating, Galium", "result": 0, "unit": "%"}, {"measurement": "pest or weed control at 125 g/ha", "setting": "[8]; 125 g ai/ha, visual injury on 0 to 100 scale (0 no effect, 100 complete control), read-out: Foxtail, Giant plant response rating", "result": 0, "unit": "%"}, {"measurement": "pest or weed control at 500 g/ha", "setting": "[8]; 500 g ai/ha, visual injury, 0 to 100 scale (0 no effect, 100 complete control), read-out: Plant response rating, Foxtail, Giant", "result": 0, "unit": "%"}, {"measurement": "plant injury at 125 g/ha", "setting": "[9]; 125 g ai/ha, visual injury on 0 to 100 scale (0 no effect, 100 complete control), read-out: Corn plant response rating", "result": 0, "unit": "%"}, {"measurement": "Corn plant response rating (crop injury, 0 = no effect, 100 = complete kill) at 500 g/ha", "setting": "[9]; 500 g ai/ha, visual injury, 0 to 100 scale (0 no effect, 100 complete control)", "result": 0, "unit": "%"}, {"measurement": "pest or weed control at 125 g/ha", "setting": "[10]; 125 g ai/ha, visual injury on 0 to 100 scale (0 no effect, 100 complete control), read-out: Kochia plant response rating", "result": 0, "unit": "%"}, {"measurement": "pest or weed control at 500 g/ha", "setting": "[10]; 500 g ai/ha, visual injury, 0 to 100 scale (0 no effect, 100 complete control), read-out: Plant response rating, Kochia", "result": 0, "unit": "%"}, {"measurement": "pest or weed control at 125 g/ha", "setting": "[11]; 125 g ai/ha, Preemergence, visual injury rating after approximately 10 d, read-out: Ryegrass, Italian plant response rating (0 to 100 scale, 0 is no effect, 100 is complete control)", "result": 0, "unit": "%"}, {"measurement": "pest or weed control at 500 g/ha", "setting": "[11]; 500 g ai/ha, preemergence, visual injury rating about 10 d after treatment, 0 to 100 scale (0 no effect, 100 complete control), read-out: Ryegrass, Italian plant response rating", "result": 0, "unit": "%"}, {"measurement": "pest or weed control at 125 g/ha", "setting": "[12]; 125 g ai/ha, Preemergence, visual injury rating after approximately 10 d, read-out: Ragweed plant response rating (0 to 100 scale, 0 is no effect, 100 is complete control)", "result": 0, "unit": "%"}, {"measurement": "pest or weed control at 500 g/ha", "setting": "[12]; 500 g ai/ha, preemergence, visual injury rating about 10 d after treatment, 0 to 100 scale (0 no effect, 100 complete control), read-out: Ragweed plant response rating", "result": 0, "unit": "%"}, {"measurement": "pest or weed control at 125 g/ha", "setting": "[13]; 125 g ai/ha, Preemergence, visual injury rating after approximately 10 d, read-out: Barnyardgrass plant response rating (0 to 100 scale, 0 is no effect, 100 is complete control)", "result": 0, "unit": "%"}, {"measurement": "pest or weed control at 500 g/ha", "setting": "[13]; 500 g ai/ha, preemergence, visual injury rating about 10 d after treatment, 0 to 100 scale (0 no effect, 100 complete control), read-out: Barnyardgrass plant response rating", "result": 60, "unit": "%"}, {"measurement": "pest or weed control at 125 g/ha", "setting": "[14]; 125 g ai/ha, Preemergence, visual injury rating after approximately 10 d, read-out: Pigweed plant response rating (0 to 100 scale, 0 is no effect, 100 is complete control)", "result": 0, "unit": "%"}, {"measurement": "pest or weed control at 500 g/ha", "setting": "[14]; 500 g ai/ha, preemergence, visual injury rating about 10 d after treatment, 0 to 100 scale (0 no effect, 100 complete control), read-out: Pigweed plant response rating", "result": 0, "unit": "%"}, {"measurement": "pest or weed control at 125 g/ha", "setting": "[15]; 125 g ai/ha, Preemergence, visual injury rating after approximately 10 d, read-out: Foxtail, Giant plant response rating (0 to 100 scale, 0 is no effect, 100 is complete control)", "result": 0, "unit": "%"}, {"measurement": "pest or weed control at 500 g/ha", "setting": "[15]; 500 g ai/ha, preemergence, visual injury rating about 10 d after treatment, 0 to 100 scale (0 no effect, 100 complete control), read-out: Foxtail, Giant plant response rating", "result": 0, "unit": "%"}, {"measurement": "pest or weed control at 125 g/ha", "setting": "[16]; 125 g ai/ha, Preemergence, visual injury rating after approximately 10 d, read-out: Kochia plant response rating (0 to 100 scale, 0 is no effect, 100 is complete control)", "result": 0, "unit": "%"}, {"measurement": "pest or weed control at 500 g/ha", "setting": "[16]; 500 g ai/ha, preemergence, visual injury rating about 10 d after treatment, 0 to 100 scale (0 no effect, 100 complete control), read-out: Kochia plant response rating", "result": 0, "unit": "%"}]}
